Patent US20250249013A1, “COMBINATION METABOLIC-EPIGENETIC TREATMENT FOR EARLY LUNG CANCER” (THE REGENTS OF THE UNIVERSITY OF CALIFORNIA, priority 2022, published 2025)

Tests used:
[1] = system: KP mice carrying LUADs; experiment: Combination treatment trial in KP mice, tumor burden by bioluminescence imaging; format: in vivo, mouse; details: 6 weeks from week 2, empagliflozin 10 mg/kg/d, tazemetostat 125 mg/kg/bid, oral gavage
Method: (§1) Lung tumors were induced by intranasal administration of Adeno-Cre (purchased from University of Iowa Viral Vector Core) as previously described (Scafoglio et al., 2018), or by transthoracic injection of Adeno-Cre in KPluc mice. All treatment trials were performed 2 weeks after tumor induction, and the results of biological duplicates were pooled for statistical analysis. In all trials, mice were assigned to therapeutic groups so that there were no significant differences in baseline tumor burden, age, sex, or weight among the different groups.
In the combination treatment trial (FIG. 3F-G), mice received the first BLI measurement two weeks post-AdenoCre administration for measurement of the baseline tumor burden. Four therapeutic groups were established as follows: (i) Placebo (n=11), receiving oral gavage of vehicle (DMSO 5%, PEG 30%, Tween80 10%); (ii) SGLT2 inhibitor Empaglifozin (10 mg/Kg/d, n=13); (iii) EZH2 inhibitor Tazemetostat (125 mg/Kg/bid, n=10); (iiii) Empaglifozin and Tazemetosat (n=19). Each group received bi-daily administration by oral gavage.

[2] = system: KP mice carrying LUADs; experiment: KP mice treated with empagliflozin for 4 weeks: RT-PCR on lung tumors; format: in vivo, mouse; details: vs placebo
Method: as §1
In the trial for assessment of tumor differentiation by RT-PCR (FIGS. 1F and 6C) mice (n=3) received intranasal AdenoCre and treatment with either placebo (0.5% hypromellose-methyl cellulose) or empagliflozin (10 mg/Kg/d by oral gavage) for 4 weeks, followed by tumor collection and RNA extraction. RT-PCR was performed in technical triplicates, yielding a total of 9 experimental points per group.
(§2) Total RNA was extracted from A549, NCI-H358 and 2953A by using TRI Reagent Solution (Applied Biosystem), according to manufacturer instruction. RNA concertation was assayed by Nanodrop 3000 spectrophotometer (Thermo Fisher Scientific). Then, 1 μg of RNA was treated with DNase I (Thermo Fisher Scientific) and used for cDNA preparation.
(§3) cDNA was prepared using 1 μg of RNA with SuperScript IV Reverse Transcriptase (Invitrogen). SYBR green-based RT-PCR kit (Biorad) was performed using human and mouse primers (See Table EV11). mRNA levels were normalized to GAPDH (ΔCt=Ctgene of interest-Ct GAPDH) and presented as relative mRNA expression (ΔΔCt=2-(ΔCtsample-ΔCtcontrol)). All primers were designed by NCBI Primer-BLAST and purchased from Integrated DNA Technologies.

[3] = system: KP mice carrying LUADs; experiment: KP mice treated with empagliflozin for 6 weeks: lung histology (H&E) and IHC; format: in vivo, mouse
Method: as §1
In the trial for assessment of tumor differentiation by immunohistochemistry (FIG. 1A-E, 6L-M, and EV1A-C) lung tumors were induced by intranasal administration of Adeno-Cre. After tumor induction, mice (n=11 for placebo and 13 for empagliflozin group) were treated with either placebo (DMSO 5%, PEG 30%, Tween80 10%) or empagliflozin (10 mg/Kg/d by oral gavage) for 6 weeks and then sacrificed for lung collection and fixation in formalin.
For the GEMMs, the mouse lungs were collected and inflated with 10% formalin in phosphate-buffered saline. After 24 hours, formalin was replaced to 70% ethanol. All tissues were paraffin-embedded and sliced into […] sections in the Translational Pathology Core Laboratory (TPCL) at UCLA.
For IHC staining, the slides were deparaffinized by overnight incubation at 65° C., followed by rehydration by serial passages in xylenes (three washes of 5 min in 100% xylenes) and decreasing concentrations of ethanol (two washes in 100% ethanol, two washes in 95%, one wash in 80%, one wash in 70%, and one wash in water). Antigen retrieval was performed for 23 min in AR6 (pH 6.0) buffer.
Blocking was performed with 5% goat serum for 1 hour at room temperature, followed by incubation with primary antibodies overnight at 4° C. Incubation with biotin-labeled secondary antibody was performed at room temperature for 1 hour, followed by incubation with avidin-biotin peroxidase complex and ImmPACT 3,3′-diaminobenzidine (DAB). Counterstain was performed with Harris' haematoxylin diluted 1:5 in water, followed by […] step and mounting slide. After the staining, digital images of the slides were obtained with an Aperio ScanScope slide scanner (Leica Biosystems). The quantification was performed using the QPath software. Briefly, regions of interests were drawn blindly in each slide to include each tumor present in a whole-lung section, followed by cell detection and quantification of the DAB signal using a constant threshold for all samples in the same experiment. Staining intensity in each cell was classified as negative (0), weak (1), median (2), or strong (3). The results were expressed as H score.
QuPath (Bankhead et al, 2017) was used for signal quantification in IHC staining. It was expressed as H score. Kaplan-Meier curves were performed with Kaplan-Meir Plotter tool (Gyorffy, 2021), using the lung cancer section. For the selected genes only, the best probe was used. All dataset available were used as cohort. For Kaplan-Meier plot performed using multiple genes, the option “use mean expression of selected genes” was set.

[4] = system: KP mice carrying LUADs; experiment: ELISA for H3K27me3 in KP tumors after empagliflozin; format: in vivo, mouse; details: transthoracic AdenoCre, empagliflozin for 1 week, vs placebo
Method: For the measurement of in vivo HeK27 trimethylation (FIG. 3B), mice (n=4 per group) received transthoracic adenoCre and were treated for 3 weeks with either placebo (0.5% hypromellose-methyl cellulose) or empagliflozin (10 mg/Kg/d by oral gavage) followed by lung collection and histone extraction for ELISA assay.
The levels of trimethylation on H3K27me3 in tumors treated with empaglifozin were detected by ELISA kits (Active Motif) according to the manufacturer's instructions. The experiment was carried out with 4 replicates for each group. After tumor collecting, histone extraction was performed.
We used H3K27me3 and H3 total antibodies for plate coating. The absorbance was detected by Varioskan Lux (Thermo Fisher Scientific). The H3K27me3 levels were normalized to H3 total and presented as optical densitometry (O. D.) 450 nm of a ratio of H3K27me3/H3.

[5] = system: KP mice carrying LUADs; experiment: KP mice treated with empagliflozin, ex vivo BLI, then tail vein re-injection of sorted tumor cells in syngeneic mice; design: species or system mouse
Method: For our studies on the investigation of cell aggressiveness due to the glucose deprivation, we used syngeneic FVB mice. Two experiments were performed, in biological duplicate.
In the second experiment (FIG. 2G-J), KP mice injected transthoracically with AdenoCre were treated for 3 weeks with either placebo (n=3) or empagliflozin (n=3), and sacrificed for lung collection. Tumors were identified in the murine lungs by ex vivo bioluminescence and dissociated. Tumor single cells were resuspended in cold PBS followed by magnetic beads sorting (Miltenyi Biotec) to isolate the Epcam-positive epithelial cells. Finally, sorted tumor cells were injected by tail vein inoculation (1,000,000 cells/mouse) into syngeneic mice (n=6 per group). Tumor burden was measured by bioluminescence until 13 weeks after inoculation.

[6] = system: long non-coding RNA HIFAL; experiment: Expression of HIFAL in low glucose with αKG; format: cell-based; details: cell line not stated (Fig. EV5F-G)
Method: (§4) All αKG rescue experiments were conducted using 10 mM alpha-ketoglutarate (α-KG; Sigma) and α-Mannitol (Sigma) as osmotic control.
as §3

[7] = system: NCI-H358 cells; experiment: αKG rescue in low glucose, western blot and RT-PCR; format: cell-based, human; details: NCI-H358, 2 hours in low glucose, αKG
Method: (§5) Human lung cancer A549 (CCL-185) and NCI-H358 (CRL-5807) cells lines were purchased from American Type Culture Collection (ATCC, Manassas, VA). Cells were maintained in culture according to manufacturer protocol using Roswell Park Memorial Institute (RPMI) 1640 medium (Corning, Cat. #10-040CV) supplemented with 10% FBS and 5% 1× Pen-Strep and kept in 37° C. and 5% of CO2. Murine 2953A cell line was established in our lab from a KP lung tumor by tissue dissociation. This cell line was maintained in culture in Dulbecco's modified Eagle Medium (DMEM) medium (Corning, Cat. #10-017CV) with 5% FBS and 5% 1× Pen-Strep.
(§6) All experiments in cell lines were performed in biological triplicate. Cells were seeded at same confluence and grown for 5 days (and for some experiments overnight or up to 9 days or 30 days, as indicated in the figures and text) in different concentration of glucose: high (20 mM), low (1 mM) and for some experiments medium (5 mM), as indicated. We used mediums with glutamine and without glucose: RPMI (Corning Cat. #10-043CV) for A549 and NCI-H358 cells, DMEM (ThermoScientific Cat. #11566025) for 2953A cells, supplemented with 10% FBS, 5% of 1× Pen-Strep and complemented with D-Glucose to the desired final concentration, as indicated in the figures.
as §4
(§7) For total protein extraction, cells were harvested, washed twice with ice-cold PBS-EDTA (0.5 mm EDTA), lysed using RIPA buffer (50 mM Tris-HCl pH 7.6, 150 mM NaCl, 0.1% SDS, 0.5% C24H39NaO4, 1% NP-40, 2 mm EDTA, 50 mm NaF) for 15 min on ice and centrifuged at 13,000 rpm for 30 min at +4° C. The resulting protein extracts were quantified using BCA protein assay followed by analysis by SDS-PAGE and Western blotting.
(§8) Histones was extracted from A549, NCI-H358 and 2953A cell lines using the Histone extraction kit (Abcam) according to manufacturer instructions.
(§9) SDS-PAGE and Western blotting analyses were performed using standard protocols. For antibodies information, see Reagents and Tools Table. Western blot images were detected by iBright Imaging Systems (Thermo Fisher Scientific). The protein detected was normalized to Actin or H3 total antibodies, this last in case of histonic extract. Each immunodetection derived from the same membrane was performed with the same exposure times according to the manufacture's antibody guidelines and was cropped only for presentation purposes; this is indicated by a dotted line.
as §2, §3

[8] = system: A549 cells; experiment: αKG rescue in low glucose, western blot and RT-PCR; format: cell-based, human; details: A549, 2 hours in low glucose, αKG
Method: as §5, §6, §4, §7, §8, §9, §2, §3

[9] = system: MCF7; experiment: αKG rescue of FoxA2 in low glucose, western blot; format: cell-based, human; details: MCF7 breast cancer cells, low glucose 5 days
Method: (§10) For the glutamine deprivation experiment, A549 and NCI-H358 cell lines were also seeded and grown up to 5 days in DMEM without glutamine and glucose (Corning Cat. #17-207CV) and complemented with L-glutamine (GlutaMAX CTS, Gibco) to a final concentration of either 6 mM (high glutamine) or 2 mM (low glutamine) and D-Glucose to a final concentration of either 10 mM (high glucose) or 1 mM (low glucose). Finally, breast cancer (MCF7) and pancreatic cancer (PANC1) cell lines were purchased from ATCC and were seeded and grown up to 5 days in RPM11640 complemented with D-Glucose to a final concentration of either 20 mM or 1 mM.
as §4, §9

[10] = system: PANC1; experiment: αKG rescue of FoxA2 in low glucose, western blot; format: cell-based, human; details: PANC1 pancreas cancer cells, low glucose 5 days
Method: as §10, §4, §9

[11] = KP tumors week 6, empagliflozin 4 weeks
[12] = empagliflozin 10 mg/kg/d, 6 weeks, vs placebo

SMILES: OC[C@H]1O[C@@H](c2ccc(Cl)c(Cc3ccc(O[C@H]4CCOC4)cc3)c2)[C@H](O)[C@@H](O)[C@@H]1O [empagliflozin]
- tumor burden by bioluminescence imaging, compared with placebo [1]: significantly reduced
- HIF1α RNA levels, RT-PCR ([2]; KP murine tumors, empagliflozin 4 weeks): significant up-regulation
- surfactant protein C (SpC) expression, qPCR ([2]; KP tumors collected week 6 post-induction, empagliflozin 10 mg/kg/d 4 weeks): significant reduction
- FoxA2 expression, qPCR [2, 11]: significant reduction
- FoxJ1 expression (ciliated cell marker), qPCR [2, 11]: reduced expression
- HmgA2 expression, qPCR [2, 11]: increase
- Pdpn expression (type I alveolar cell marker), qPCR [2, 11]: reduced expression
- Scgb3A2 expression (Clara cell marker), qPCR [2, 11]: reduced expression
- Ttf1 expression, qPCR [2, 11]: significant reduction
- differentiation of lung lesions, visual inspection of H&E staining ([3]; empagliflozin 10 mg/kg/d oral gavage, week 2 to week 8 post-AdenoCre, vs placebo): more poorly differentiated
- clear cell component of tumors ([3]; empagliflozin 10 mg/kg/d, 6 weeks, completely absent from placebo tumors): some of the tumors in the empagliflozin group had a clear cell component
- E-cadherin IHC signal (H score) [3, 12]: significant down-regulation
- FoxA2 IHC signal (H score) [3, 12]: significant reduction
- Ttf-1 IHC signal (H score) [3, 12]: significant reduction
- micropapillary component of murine tumors, pathological quantification [3, 12]: increasing
- solid component of murine tumors, pathological quantification [3, 12]: significantly reducing
- tri-methylation on H3K27 (H3K27me3 over total H3), ELISA [4]: significant increase
- tumor burden, ex vivo BLI ([5]; KP mice, empagliflozin week 2 to week 5 after transthoracic AdenoCre, vs placebo): significantly reduced
- tumors formed after re-injection of treated tumor cells in syngeneic mice, BLI ([5]; same number of sorted epithelial cells by tail vein, BLI at week 13, vs placebo group): formed larger tumors than the placebo group

SMILES: O=C(O)CCC(=O)C(=O)O [αKG, alpha-ketoglutarate]
- activation of HIFAL in low glucose [6]: completely rescued
- activation of HIF1α after short-time glucose deprivation, western blot [7]: rescued
- activation of HIF1α after short-time glucose deprivation, western blot [8]: rescued
- low glucose-induced FoxA2 down-regulation, western blot [9]: rescued
- low glucose-induced FoxA2 down-regulation, western blot [10]: rescued
